Converted amounts (≈) assume the structure as drawn.
Assays:
[1] = system: H9 (acute lymphoblastic leukemia, ALL); assay: MTT leukemia cell growth inhibition, 72 h; assay type: cell-based, human; settings: Homo sapiens, H9, 72 h; for IC50: read-out: IC50; for IC90: read-out: IC90
Text: (§1) Leukemia cell lines: K562/adr (drug-resistant, chronic myeloid leukemia, CML), NB4 (acute promyelocytic leukemia, AML), Kasumi-1 (acute myeloid leukemia M2 type, AML-M2), Jurkat (acute lymphoblastic leukemia, ALL), all of which are donated by Cancer Research Institute of Zhejiang University, China; and H9 (acute lymphoblastic leukemia, ALL), which is purchased from China Center for Type Culture Collection.
(§2) Obtaining 6000 well-growing leukemia cells and inoculating them into wells of a 96-well cell culture plate. The culture medium is the 1640 cell culture medium containing 10% fetal bovine serum. After adding the homoharringtonine derivatives of different concentrations and mixing uniformly, placing the plate in a carbon dioxide cell incubator (5% CO2) at 37° C. and incubating for 72 hours. Then the viable cell concentration is determined by the MTT method. In this experiment, the cell viability in control group (not treated with any compound) is set as 100%.

[2] = system: Jurkat (acute lymphoblastic leukemia, ALL); assay: MTT leukemia cell growth inhibition, 72 h; assay type: cell-based, human; settings: Homo sapiens; for IC50: read-out: IC50; for IC90: read-out: IC90
Text: as §1, §2

[3] = system: K562/adr (drug-resistant, chronic myeloid leukemia, CML); assay: MTT leukemia cell growth inhibition, 72 h; assay type: cell-based, human; settings: Homo sapiens, K562/Adr; for IC50: read-out: IC50; for IC90: read-out: IC90
Text: as §1, §2

[4] = system: Kasumi-1 (acute myeloid leukemia M2 type, AML-M2); assay: MTT leukemia cell growth inhibition, 72 h; assay type: cell-based, human; settings: Homo sapiens, Kasumi-1, 72 h; for IC50: read-out: IC50; for IC90: read-out: IC90
Text: as §1, §2

[5] = system: NB4 (acute promyelocytic leukemia, AML); assay: MTT leukemia cell growth inhibition, 72 h; assay type: cell-based, human; settings: Homo sapiens, NB4, 72 h; for IC50: read-out: IC50; for IC90: read-out: IC90
Text: as §1, §2

[6] = system: RPMI8226 (multiple myeloma); assay: MTT multiple myeloma cell growth inhibition, 72 h; assay type: cell-based, human; settings: Homo sapiens, RPMI-8226, RPMI8226, 72 h; for IC50: read-out: IC50; for IC90: read-out: IC90
Method: Multiple myeloma and lymphoma cell lines: RPMI8226 (multiple myeloma), purchased from Fuxiang Bio-tech Co. Ltd., Shanghai, China.
Obtaining 6000 well-growing leukemia cells and inoculating them into wells of a 96-well cell culture plate. The culture medium is the 1640 cell culture medium containing 10% fetal bovine serum. After adding the homoharringtonine derivatives of different concentrations and mixing uniformly, placing the plate in a carbon dioxide cell incubator (5% CO2) at 37° C. and incubating for 72 hours. Then the viable cell concentration is determined by the MTT method.

[7] = system: A549 (human lung cancer); assay: MTT solid tumor cell growth inhibition, 72 h; assay type: cell-based; settings: Homo sapiens, A549, 72 h; for IC50: read-out: IC50; for IC90: read-out: IC90
Method: (§3) Human solid tumor cell lines: Hep-2 ([…]), A549 (human lung cancer), CaES-17 (esophageal cancer cell), PC-3 (prostate cancer), CNE (nasopharyngeal carcinoma cell), and SK-OV-3 (ovarian cancer cell), all of which are purchased from China Center For Type Culture Collection; RKO (human colon adenocarcinoma cell), MGC 803 (human gastric cancer cell), MG63 (osteosarcoma) and U87 MG (malignant glioma cell), all of which are purchased from Fuxiang Bio-tech Co. Ltd., Shanghai, China; PANC-1 (pancreatic cancer), Huh7 (human liver cancer cell), Becap37 (human breast cancer cell), and Hela (human cervical cancer cell), all of which are donated by Cancer Research Institute of Zhejiang University, China.
(§4) Obtaining 4000 well-growing human solid tumor cells and inoculating them into wells of a 96-well cell culture plate. The culture medium is DMEM High Glucose cell culture medium containing 10% fetal bovine serum. The plate is placed in a carbon dioxide cell incubator (5% CO2) at 37° C. and incubating for 24 hours. After adding the homoharringtonine derivatives of different concentration and mixing uniformly, the plate is placed in a carbon dioxide cell incubator (5% CO2) at 37° C. and incubating for 72 hours. Then the viable cell concentration is determined by the MTT method and the cell viability (%) after drug treatment is calculated. In this experiment, the cell viability of control group (not treated with any compound) is set as 100%.

[8] = system: Becap37 (human breast cancer cell); assay: MTT solid tumor cell growth inhibition, 72 h; assay type: cell-based; settings: Homo sapiens, Becap37, 72 h; for IC50: read-out: IC50; for IC90: read-out: IC90
Method: as §3, §4

[9] = system: Huh7 (human liver cancer cell); assay: MTT solid tumor cell growth inhibition, 72 h; assay type: cell-based; settings: Homo sapiens, Huh-7, Huh7, 72 h; for IC50: read-out: IC50; for IC90: read-out: IC90
Method: as §3, §4

[10] = system: RKO (human colon adenocarcinoma cell); assay: MTT solid tumor cell growth inhibition, 72 h; assay type: cell-based; settings: Homo sapiens; for IC50: read-out: IC50; for IC90: read-out: IC90
Method: as §3, §4

[11] = system: MG63 (osteosarcoma); assay: MTT solid tumor cell growth inhibition, 72 h; assay type: cell-based, human; settings: Homo sapiens, MG 63, 72 h; for IC50: read-out: IC50; for IC90: read-out: IC90
Method: as §3, §4

[12] = system: PANC-1 (pancreatic cancer); assay: MTT solid tumor cell growth inhibition, 72 h; assay type: cell-based, human; settings: Homo sapiens, PANC-1, 72 h; for IC50: read-out: IC50; for IC90: read-out: IC90
Method: as §3, §4

[13] = system: MGC 803 (human gastric cancer cell); assay: MTT solid tumor cell growth inhibition, 72 h; assay type: cell-based; settings: Homo sapiens, MGC 803, 72 h; for IC50: read-out: IC50; for IC90: read-out: IC90
Method: as §3, §4

Row | SMILES | IC50 [1] | IC90 [1] | IC50 [2] | IC90 [2] | IC50 [3] | IC90 [3] | IC50 [4] | IC90 [4] | IC50 [5] | IC90 [5] | IC50 [6] | IC90 [6] | IC50 [7] | IC90 [7] | IC50 [8] | IC90 [8] | IC50 [9] | IC90 [9] | IC50 [11] | IC90 [11] | further results
1 | COC1=C[C@]23CCCN2CCc2cc4c(cc2[C@@H]3[C@@H]1OC(=O)[C@@](O)(CCCC(C)(C)O)CC(=O)Nc1nccs1)OCO4 [BS-HH-008] | 13.4 µg/mL (≈ 21.9 µM) | > 16 µg/mL | 4.69 µg/mL (≈ 7.64 µM) | 16 µg/mL (≈ 26.1 µM) | > 16 µg/mL | > 16 µg/mL | 5 µg/mL (≈ 8.15 µM) | > 16 µg/mL | 5.62 µg/mL (≈ 9.16 µM) | 12.8 µg/mL (≈ 20.9 µM) | 11 µg/mL (≈ 17.9 µM) | > 16 µg/mL | 16 µg/mL (≈ 26.1 µM) | > 16 µg/mL | > 16 µg/mL | > 16 µg/mL | 11.2 µg/mL (≈ 18.3 µM) | > 16 µg/mL | 15.5 µg/mL (≈ 25.3 µM) | > 16 µg/mL | IC50 [10]: 4.44 µg/mL (≈ 7.23 µM); IC90 [10]: 16 µg/mL (≈ 26.1 µM); IC50 [12]: > 16 µg/mL; IC90 [12]: > 16 µg/mL
2 | COC1=C[C@]23CCCN2CCc2cc4c(cc2[C@@H]3[C@@H]1OC(=O)[C@@](O)(CCCC(C)(C)O)CC(=O)N1CCN(C)CC1)OCO4 [BS-HH-009] | 8 µg/mL (≈ 13 µM) | > 16 µg/mL | 3 µg/mL (≈ 4.89 µM) | > 16 µg/mL | > 16 µg/mL | > 16 µg/mL | 8.54 µg/mL (≈ 13.9 µM) | > 16 µg/mL | 2.97 µg/mL (≈ 4.84 µM) | 11.2 µg/mL (≈ 18.2 µM) | 3.6 µg/mL (≈ 5.87 µM) | 16 µg/mL (≈ 26.1 µM) | 10.2 µg/mL (≈ 16.7 µM) | > 16 µg/mL | 3.09 µg/mL (≈ 5.03 µM) | > 16 µg/mL | 6.7 µg/mL (≈ 10.9 µM) | > 16 µg/mL | 1.72 µg/mL (≈ 2.8 µM) | > 16 µg/mL | IC50 [10]: 1.46 µg/mL (≈ 2.38 µM); IC90 [10]: 5.72 µg/mL (≈ 9.32 µM); IC50 [12]: 16 µg/mL (≈ 26.1 µM); IC90 [12]: > 16 µg/mL
3 | COC1=C[C@]23CCCN2CCc2cc4c(cc2[C@@H]3[C@@H]1OC(=O)[C@@](O)(CCCC(C)(C)O)CC(=O)N1CCOCC1)OCO4 [BS-HH-011] | > 16 µg/mL | > 16 µg/mL | 6.7 µg/mL (≈ 11.2 µM) | > 16 µg/mL | > 16 µg/mL | > 16 µg/mL | 8.28 µg/mL (≈ 13.8 µM) | > 16 µg/mL | 3.22 µg/mL (≈ 5.36 µM) | 9.54 µg/mL (≈ 15.9 µM) | 6.71 µg/mL (≈ 11.2 µM) | > 16 µg/mL | > 16 µg/mL | > 16 µg/mL | 11.3 µg/mL (≈ 18.8 µM) | > 16 µg/mL | 16 µg/mL (≈ 26.6 µM) | > 16 µg/mL | 6.33 µg/mL (≈ 10.5 µM) | > 16 µg/mL | IC50 [10]: 4 µg/mL (≈ 6.66 µM); IC90 [10]: > 16 µg/mL; IC50 [12]: > 16 µg/mL; IC90 [12]: > 16 µg/mL
4 | COC1=C[C@]23CCCN2CCc2cc4c(cc2[C@@H]3[C@@H]1OC(=O)[C@@](O)(CCCC(C)(C)O)CC(=O)N1CCSCC1)OCO4 [BS-HH-014] | 8.25 µg/mL (≈ 13.4 µM) | > 16 µg/mL | 2 µg/mL (≈ 3.24 µM) | > 16 µg/mL | > 16 µg/mL | > 16 µg/mL | 1.33 µg/mL (≈ 2.16 µM) | 8.61 µg/mL (≈ 14 µM) | 1.29 µg/mL (≈ 2.09 µM) | 3.7 µg/mL (≈ 6 µM) | 2.43 µg/mL (≈ 3.94 µM) | 16 µg/mL (≈ 25.9 µM) | 9.79 µg/mL (≈ 15.9 µM) | > 16 µg/mL | 6.89 µg/mL (≈ 11.2 µM) | > 16 µg/mL | 4 µg/mL (≈ 6.49 µM) | > 16 µg/mL | 6.24 µg/mL (≈ 10.1 µM) | > 16 µg/mL | IC50 [13]: 2.92 µg/mL (≈ 4.73 µM); IC90 [13]: 15.5 µg/mL (≈ 25.1 µM); IC50 [10]: 1.25 µg/mL (≈ 2.03 µM); IC90 [10]: 5.36 µg/mL (≈ 8.69 µM); IC50 [12]: 8 µg/mL (≈ 13 µM); IC90 [12]: > 16 µg/mL
5 | COC1=C[C@]23CCCN2CCc2cc4c(cc2[C@@H]3[C@@H]1OC(=O)[C@@](O)(CCCC(C)(C)O)CC(=O)N1CC=CC1)OCO4 [BS-HH-018] | 2.69 µg/mL (≈ 4.62 µM) | > 16 µg/mL | 0.88 µg/mL (≈ 1.51 µM) | 16 µg/mL (≈ 27.5 µM) | 7.77 µg/mL (≈ 13.3 µM) | > 16 µg/mL | 0.47 µg/mL (≈ 0.807 µM) | 2.32 µg/mL (≈ 3.98 µM) | 0.38 µg/mL (≈ 0.652 µM) | 1 µg/mL (≈ 1.72 µM) | 0.6 µg/mL (≈ 1.03 µM) | 5.66 µg/mL (≈ 9.71 µM) | 4.09 µg/mL (≈ 7.02 µM) | > 16 µg/mL | 1.7 µg/mL (≈ 2.92 µM) | > 16 µg/mL | 2.5 µg/mL (≈ 4.29 µM) | > 16 µg/mL | 0.96 µg/mL (≈ 1.65 µM) | > 16 µg/mL | IC50 [13]: 0.94 µg/mL (≈ 1.61 µM); IC90 [13]: 4.96 µg/mL (≈ 8.51 µM); IC50 [10]: 0.34 µg/mL (≈ 0.583 µM); IC90 [10]: 1.5 µg/mL (≈ 2.57 µM); IC50 [12]: 2.89 µg/mL (≈ 4.96 µM); IC90 [12]: > 16 µg/mL
6 | COC1=C[C@]23CCCN2CCc2cc4c(cc2[C@@H]3[C@@H]1OC(=O)[C@@](O)(CCCC(C)(C)O)CC(=O)N1CCCCC1)OCO4 [BS-HH-051] | 7.26 µg/mL (≈ 12.1 µM) | > 16 µg/mL | 1.3 µg/mL (≈ 2.17 µM) | > 16 µg/mL | > 16 µg/mL | > 16 µg/mL | 2 µg/mL (≈ 3.34 µM) | 16 µg/mL (≈ 26.7 µM) | 1.5 µg/mL (≈ 2.51 µM) | 16 µg/mL (≈ 26.7 µM) | 1.7 µg/mL (≈ 2.84 µM) | 16 µg/mL (≈ 26.7 µM) | 6.96 µg/mL (≈ 11.6 µM) | > 16 µg/mL | 1.99 µg/mL (≈ 3.32 µM) | > 16 µg/mL | > 16 µg/mL | > 16 µg/mL | 2.72 µg/mL (≈ 4.54 µM) | > 16 µg/mL | IC50 [13]: 1.9 µg/mL (≈ 3.17 µM); IC90 [13]: 26.7 µg/mL (≈ 44.6 µM); IC50 [12]: 6.84 µg/mL (≈ 11.4 µM); IC90 [12]: > 16 µg/mL

Source: patent publication US9676789B2, “Aminated derivative of homoharringtonine, preparation method therefor, and application thereof” (HANGZHOU BENSHENG PHARMACEUTICAL CO., LTD., priority 2011, dated 2017)
